From patent publication US9302988B2, “Fluoromethyl-substituted pyrrole carboxamides” (GRÜNENTHAL GMBH, priority 2012, dated 2016)

Biological target: T1, Human CaV2.2 channels (Homo sapiens, UniProt Q00975)
T1 construct: expressed in transfected cells
Experiment: Fluorescent assay for CaV2.2 channels using potassium depolarization to induce channel opening (FLIPR, Fluo-4)
Type: cell-based
Settings: 3 μM test compound, 30 mM KCl, HEK293 cells stably expressing human CaV2.2; read-out: %-Inhib (CaV2.2) @3 μM @30 mM KCl
How it was run: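 HEK293 cells stably co-expressing CaV2.2 with α2δ and β subunits plus Kir2.3 were Fluo-4 loaded, then preincubated 15 min at 25 °C with compound in 30 mM KCl buffer, pH 7.4. Depolarization was by adding buffer containing 210 mM KCl. Inhibition was taken from baseline-normalized peak fluorescence amplitude (ex 480/em 535 nm).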

T1 sequence (Q00975 whole entry): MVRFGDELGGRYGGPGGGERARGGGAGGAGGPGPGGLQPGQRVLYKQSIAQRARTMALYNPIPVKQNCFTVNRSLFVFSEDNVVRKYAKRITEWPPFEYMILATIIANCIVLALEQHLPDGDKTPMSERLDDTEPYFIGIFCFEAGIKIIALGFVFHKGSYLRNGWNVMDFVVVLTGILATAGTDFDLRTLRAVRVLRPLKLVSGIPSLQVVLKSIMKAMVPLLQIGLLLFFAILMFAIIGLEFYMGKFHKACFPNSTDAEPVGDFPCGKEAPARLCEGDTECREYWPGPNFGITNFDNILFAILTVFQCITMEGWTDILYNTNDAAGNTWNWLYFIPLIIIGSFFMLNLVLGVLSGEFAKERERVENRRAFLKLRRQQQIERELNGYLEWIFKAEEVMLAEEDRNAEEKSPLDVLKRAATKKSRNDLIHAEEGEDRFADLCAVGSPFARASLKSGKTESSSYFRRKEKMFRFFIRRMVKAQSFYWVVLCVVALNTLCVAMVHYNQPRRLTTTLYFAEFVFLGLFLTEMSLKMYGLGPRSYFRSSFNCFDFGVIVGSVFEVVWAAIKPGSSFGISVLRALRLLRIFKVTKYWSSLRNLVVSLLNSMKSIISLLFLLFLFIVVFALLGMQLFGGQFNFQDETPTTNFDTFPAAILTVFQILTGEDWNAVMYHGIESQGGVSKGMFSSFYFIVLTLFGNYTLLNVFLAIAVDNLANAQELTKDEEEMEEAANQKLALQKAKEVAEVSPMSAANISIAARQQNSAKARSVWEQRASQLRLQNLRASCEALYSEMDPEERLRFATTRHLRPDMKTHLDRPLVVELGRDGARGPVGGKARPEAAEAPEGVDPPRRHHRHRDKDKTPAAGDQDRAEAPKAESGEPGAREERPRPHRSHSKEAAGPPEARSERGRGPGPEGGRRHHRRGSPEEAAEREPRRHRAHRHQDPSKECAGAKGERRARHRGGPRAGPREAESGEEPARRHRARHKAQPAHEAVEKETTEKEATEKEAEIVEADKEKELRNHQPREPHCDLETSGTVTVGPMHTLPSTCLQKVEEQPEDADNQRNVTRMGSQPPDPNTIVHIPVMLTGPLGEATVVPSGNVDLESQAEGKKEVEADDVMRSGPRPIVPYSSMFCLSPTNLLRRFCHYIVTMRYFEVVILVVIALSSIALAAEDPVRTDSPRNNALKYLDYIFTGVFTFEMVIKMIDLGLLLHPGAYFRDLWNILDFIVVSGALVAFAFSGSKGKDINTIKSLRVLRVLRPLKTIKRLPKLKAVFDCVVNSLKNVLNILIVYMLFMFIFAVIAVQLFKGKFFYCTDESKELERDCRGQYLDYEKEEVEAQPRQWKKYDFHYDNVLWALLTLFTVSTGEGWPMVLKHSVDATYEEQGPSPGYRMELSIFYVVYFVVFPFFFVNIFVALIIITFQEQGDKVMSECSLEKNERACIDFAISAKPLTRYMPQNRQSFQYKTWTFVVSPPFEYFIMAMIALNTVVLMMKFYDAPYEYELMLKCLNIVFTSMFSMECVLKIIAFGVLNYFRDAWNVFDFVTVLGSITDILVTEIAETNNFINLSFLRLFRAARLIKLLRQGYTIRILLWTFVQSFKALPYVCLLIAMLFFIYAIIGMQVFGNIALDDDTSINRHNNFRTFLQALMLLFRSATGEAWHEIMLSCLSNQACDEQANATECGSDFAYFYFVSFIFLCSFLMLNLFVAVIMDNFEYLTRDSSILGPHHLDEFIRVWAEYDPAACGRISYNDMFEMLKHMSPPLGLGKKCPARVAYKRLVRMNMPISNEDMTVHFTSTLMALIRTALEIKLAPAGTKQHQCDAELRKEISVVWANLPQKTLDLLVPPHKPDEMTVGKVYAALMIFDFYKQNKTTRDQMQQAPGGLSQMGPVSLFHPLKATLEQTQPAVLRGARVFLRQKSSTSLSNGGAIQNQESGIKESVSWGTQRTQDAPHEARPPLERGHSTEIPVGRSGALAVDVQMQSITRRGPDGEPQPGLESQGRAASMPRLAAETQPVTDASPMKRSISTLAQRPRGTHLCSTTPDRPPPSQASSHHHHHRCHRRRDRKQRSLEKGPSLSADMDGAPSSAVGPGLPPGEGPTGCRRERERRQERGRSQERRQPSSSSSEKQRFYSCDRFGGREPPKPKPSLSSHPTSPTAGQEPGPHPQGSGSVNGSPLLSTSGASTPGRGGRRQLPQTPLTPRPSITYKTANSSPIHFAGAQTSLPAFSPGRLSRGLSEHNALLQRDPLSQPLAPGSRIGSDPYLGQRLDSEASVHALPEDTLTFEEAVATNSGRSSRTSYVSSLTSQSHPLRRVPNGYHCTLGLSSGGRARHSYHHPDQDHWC
T1 sequence (P54289 25-1103, further chain): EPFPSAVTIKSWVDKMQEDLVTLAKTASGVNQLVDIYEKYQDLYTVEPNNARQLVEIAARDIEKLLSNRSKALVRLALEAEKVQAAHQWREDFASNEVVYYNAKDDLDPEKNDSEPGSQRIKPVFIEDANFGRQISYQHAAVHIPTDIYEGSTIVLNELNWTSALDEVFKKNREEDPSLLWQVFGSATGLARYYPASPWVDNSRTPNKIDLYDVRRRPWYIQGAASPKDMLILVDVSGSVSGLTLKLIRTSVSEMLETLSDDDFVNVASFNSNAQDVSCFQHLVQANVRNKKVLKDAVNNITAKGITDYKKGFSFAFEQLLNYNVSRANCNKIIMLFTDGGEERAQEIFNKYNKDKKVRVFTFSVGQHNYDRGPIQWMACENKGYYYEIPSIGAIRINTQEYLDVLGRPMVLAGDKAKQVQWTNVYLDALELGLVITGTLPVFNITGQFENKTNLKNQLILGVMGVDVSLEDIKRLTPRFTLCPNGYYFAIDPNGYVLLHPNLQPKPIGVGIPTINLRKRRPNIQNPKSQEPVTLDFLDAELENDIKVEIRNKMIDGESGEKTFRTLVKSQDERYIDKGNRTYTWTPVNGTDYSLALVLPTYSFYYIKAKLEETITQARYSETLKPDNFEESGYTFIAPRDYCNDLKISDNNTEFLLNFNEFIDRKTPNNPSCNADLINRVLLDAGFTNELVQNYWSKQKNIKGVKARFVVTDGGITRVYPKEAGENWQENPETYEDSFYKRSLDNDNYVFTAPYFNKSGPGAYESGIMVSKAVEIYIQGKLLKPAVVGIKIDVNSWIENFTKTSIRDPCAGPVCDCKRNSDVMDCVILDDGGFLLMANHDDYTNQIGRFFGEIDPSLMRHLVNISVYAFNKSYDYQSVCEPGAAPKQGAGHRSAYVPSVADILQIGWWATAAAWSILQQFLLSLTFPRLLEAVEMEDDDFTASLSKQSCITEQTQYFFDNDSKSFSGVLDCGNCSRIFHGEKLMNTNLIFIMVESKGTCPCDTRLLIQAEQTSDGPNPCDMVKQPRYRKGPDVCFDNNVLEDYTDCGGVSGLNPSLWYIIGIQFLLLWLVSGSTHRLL
T1 sequence (P54284 whole entry, further chain): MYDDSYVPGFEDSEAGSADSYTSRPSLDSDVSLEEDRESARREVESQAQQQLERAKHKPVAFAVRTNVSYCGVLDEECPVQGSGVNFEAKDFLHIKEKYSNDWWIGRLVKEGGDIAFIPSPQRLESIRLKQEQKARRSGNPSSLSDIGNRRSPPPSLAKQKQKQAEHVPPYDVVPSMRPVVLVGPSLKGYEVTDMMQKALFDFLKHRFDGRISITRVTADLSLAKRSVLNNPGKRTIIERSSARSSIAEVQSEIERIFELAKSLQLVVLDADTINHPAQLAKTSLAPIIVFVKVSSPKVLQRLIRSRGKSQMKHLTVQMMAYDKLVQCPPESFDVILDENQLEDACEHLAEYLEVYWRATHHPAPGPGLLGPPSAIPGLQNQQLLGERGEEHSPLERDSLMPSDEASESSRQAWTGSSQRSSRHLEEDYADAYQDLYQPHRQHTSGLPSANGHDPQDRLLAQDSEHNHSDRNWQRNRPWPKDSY

Row | SMILES | inhibition at 3 µM
1 | Cc1c(-c2ccc(C(F)(F)F)cc2)c(C(=O)N(C)C(C)(C)CO)n(Cc2ccccc2)c1C(F)(F)F [SC-231, 1-Benzyl-N-(2-hydroxy-1,1-dimethyl-ethyl)-N,4-dimethyl-5-(trifluoromethyl)-3-[4-(trifluoromethyl)-phenyl]-1H-pyrrole-2-carboxylic acid amide] | > 95%
2 | Cc1c(-c2ccc(C(F)(F)F)cc2)c(C(=O)N2CC(O)C2)n(Cc2ccccc2)c1C(F)(F)F [SC-232, [1-Benzyl-4-methyl-5-(trifluoromethyl)-3-[4-(trifluoromethyl)-phenyl]-1H-pyrrol-2-yl]-(3-hydroxy-azetidin-1-yl)-methanone] | 40 to 75%
3 | Cc1c(-c2ccc(C(F)(F)F)cc2)c(C(=O)N(C)CC(C)(C)C)n(Cc2ccccc2)c1C(F)(F)F [SC-233, 1-Benzyl-N-(2,2-dimethyl-propyl)-N,4-dimethyl-5-(trifluoromethyl)-3-[4-(trifluoromethyl)-phenyl]-1H-pyrrole-2-carboxylic acid amide] | 30 to 40%
4 | Cc1c(-c2ccc(C(F)(F)F)cc2)c(C(=O)N2CCOC(C)(C)C2)n(Cc2ccccc2)c1C(F)(F)F [SC-234, [1-Benzyl-4-methyl-5-(trifluoromethyl)-3-[4-(trifluoromethyl)-phenyl]-1H-pyrrol-2-yl]-(2,2-dimethyl-morpholin-4-yl)-methanone] | 75 to 95%
5 | Cc1c(-c2ccc(OC(F)(F)F)cc2)c(C(=O)N(C)CC(C)(C)CO)n(Cc2ccccc2)c1C(F)(F)F [SC-235, 1-Benzyl-N-(3-hydroxy-2,2-dimethyl-propyl)-N,4-dimethyl-5-(trifluoromethyl)-3-[4-(trifluoromethyloxy)-phenyl]-1H-pyrrole-2-carboxylic acid amide] | 75 to 95%
6 | Cc1c(-c2ccc(OC(F)(F)F)cc2)c(C(=O)N(C)CCS(C)(=O)=O)n(Cc2ccccc2)c1C(F)(F)F [SC-236, 1-Benzyl-N,4-dimethyl-N-(2-methylsulfonyl-ethyl)-5-(trifluoromethyl)-3-[4-(trifluoromethyloxy)-phenyl]-1H-pyrrole-2-carboxylic acid amide] | > 95%
7 | Cc1c(-c2ccc(OC(F)(F)F)cc2)c(C(=O)N(C)C2CCOCC2)n(Cc2ccccc2)c1C(F)(F)F [SC-237, 1-Benzyl-N,4-dimethyl-N-tetrahydro-pyran-4-yl-5-(trifluoromethyl)-3-[4-(trifluoromethyloxy)-phenyl]-1H-pyrrole-2-carboxylic acid amide] | 75 to 95%
8 | Cc1c(-c2ccc(OC(F)(F)F)cc2)c(C(=O)N(C)C2CC2)n(Cc2ccccc2)c1C(F)(F)F [SC-238, 1-Benzyl-N-cyclopropyl-N,4-dimethyl-5-(trifluoromethyl)-3-[4-(trifluoromethyloxy)-phenyl]-1H-pyrrole-2-carboxylic acid amide] | 40 to 75%
9 | Cc1c(-c2ccc(OC(F)(F)F)cc2)c(C(=O)N2CC(O)C2)n(Cc2ccccc2)c1C(F)(F)F [SC-239, [1-Benzyl-4-methyl-5-(trifluoromethyl)-3-[4-(trifluoromethyloxy)-phenyl]-1H-pyrrol-2-yl]-(3-hydroxy-azetidin-1-yl)-methanone] | 75 to 95%
10 | Cc1c(-c2ccc(OC(F)(F)F)cc2)c(C(=O)N(C)CC(C)(C)C)n(Cc2ccccc2)c1C(F)(F)F [SC-240, 1-Benzyl-N-(2,2-dimethyl-propyl)-N,4-dimethyl-5-(trifluoromethyl)-3-[4-(trifluoromethyloxy)-phenyl]-1H-pyrrole-2-carboxylic acid amide] | 30 to 40%
11 | Cc1c(-c2ccc(OC(F)(F)F)cc2)c(C(=O)N(C)C(C)(C)CO)n(Cc2ccccc2)c1C(F)(F)F [SC-241, 1-Benzyl-N-(2-hydroxy-1,1-dimethyl-ethyl)-N,4-dimethyl-5-(trifluoromethyl)-3-[4-(trifluoromethyloxy)-phenyl]-1H-pyrrole-2-carboxylic acid amide] | > 95%
12 | Cc1c(-c2ccc(OC(F)(F)F)cc2)c(C(=O)N2CCOC(C)(C)C2)n(Cc2ccccc2)c1C(F)(F)F [SC-242, [1-Benzyl-4-methyl-5-(trifluoromethyl)-3-[4-(trifluoromethyloxy)-phenyl]-1H-pyrrol-2-yl]-(2,2-dimethyl-morpholin-4-yl)-methanone] | 75 to 95%
13 | Cc1c(-c2ccc(Cl)c(F)c2)c(C(=O)N(C)CC(C)(C)CO)n(Cc2ccccc2)c1C(F)(F)F [SC-243, 1-Benzyl-3-(4-chloro-3-fluoro-phenyl)-N-(3-hydroxy-2,2-dimethyl-propyl)-N,4-dimethyl-5-(trifluoromethyl)-1H-pyrrole-2-carboxylic acid amide] | > 95%
14 | Cc1c(-c2ccc(Cl)c(F)c2)c(C(=O)N(C)CCS(C)(=O)=O)n(Cc2ccccc2)c1C(F)(F)F [SC-244, 1-Benzyl-3-(4-chloro-3-fluoro-phenyl)-N,4-dimethyl-N-(2-methylsulfonyl-ethyl)-5-(trifluoromethyl)-1H-pyrrole-2-carboxylic acid amide] | 75 to 95%
15 | Cc1c(-c2ccc(Cl)c(F)c2)c(C(=O)N(C)C2CCOCC2)n(Cc2ccccc2)c1C(F)(F)F [SC-245, 1-Benzyl-3-(4-chloro-3-fluoro-phenyl)-N,4-dimethyl-N-tetrahydro-pyran-4-yl-5-(trifluoromethyl)-1H-pyrrole-2-carboxylic acid amide] | > 95%
16 | Cc1c(-c2ccc(Cl)c(F)c2)c(C(=O)N(C)C2CC2)n(Cc2ccccc2)c1C(F)(F)F [SC-246, 1-Benzyl-3-(4-chloro-3-fluoro-phenyl)-N-cyclopropyl-N,4-dimethyl-5-(trifluoromethyl)-1H-pyrrole-2-carboxylic acid amide] | 75 to 95%
17 | Cc1c(-c2ccc(Cl)c(F)c2)c(C(=O)N2CC(O)C2)n(Cc2ccccc2)c1C(F)(F)F [SC-247, [1-Benzyl-3-(4-chloro-3-fluoro-phenyl)-4-methyl-5-(trifluoromethyl)-1H-pyrrol-2-yl]-(3-hydroxy-azetidin-1-yl)-methanone] | 40 to 75%
18 | Cc1c(-c2ccc(Cl)c(F)c2)c(C(=O)N(C)C(C)(C)CO)n(Cc2ccccc2)c1C(F)(F)F [SC-248, 1-Benzyl-3-(4-chloro-3-fluoro-phenyl)-N-(2-hydroxy-1,1-dimethyl-ethyl)-N,4-dimethyl-5-(trifluoromethyl)-1H-pyrrole-2-carboxylic acid amide] | 75 to 95%
19 | Cc1c(-c2ccc(Cl)c(F)c2)c(C(=O)N2CCOC(C)(C)C2)n(Cc2ccccc2)c1C(F)(F)F [SC-249, [1-Benzyl-3-(4-chloro-3-fluoro-phenyl)-4-methyl-5-(trifluoromethyl)-1H-pyrrol-2-yl]-(2,2-dimethyl-morpholin-4-yl)-methanone] | 75 to 95%
20 | Cc1c(-c2ccc(Cl)c(F)c2)c(C(=O)N(C)CC(C)(C)C)n(Cc2ccccc2)c1C(F)(F)F [SC-250, 1-Benzyl-3-(4-chloro-3-fluoro-phenyl)-N-(2,2-dimethyl-propyl)-N,4-dimethyl-5-(trifluoromethyl)-1H-pyrrole-2-carboxylic acid amide] | 40 to 75%
21 | Cc1c(-c2ccc(F)c(Cl)c2)c(C(=O)N(C)CC(C)(C)CO)n(Cc2ccccc2)c1C(F)(F)F [SC-251, 1-Benzyl-3-(3-chloro-4-fluoro-phenyl)-N-(3-hydroxy-2,2-dimethyl-propyl)-N,4-dimethyl-5-(trifluoromethyl)-1H-pyrrole-2-carboxylic acid amide] | 75 to 95%
22 | Cc1c(-c2ccc(F)c(Cl)c2)c(C(=O)N(C)CCS(C)(=O)=O)n(Cc2ccccc2)c1C(F)(F)F [SC-252, 1-Benzyl-3-(3-chloro-4-fluoro-phenyl)-N,4-dimethyl-N-(2-methylsulfonyl-ethyl)-5-(trifluoromethyl)-1H-pyrrole-2-carboxylic acid amide] | > 95%
23 | Cc1c(-c2ccc(F)c(Cl)c2)c(C(=O)N(C)C2CCOCC2)n(Cc2ccccc2)c1C(F)(F)F [SC-253, 1-Benzyl-3-(3-chloro-4-fluoro-phenyl)-N,4-dimethyl-N-tetrahydro-pyran-4-yl-5-(trifluoromethyl)-1H-pyrrole-2-carboxylic acid amide] | > 95%
24 | Cc1c(-c2ccc(F)c(Cl)c2)c(C(=O)N(C)C2CC2)n(Cc2ccccc2)c1C(F)(F)F [SC-254, 1-Benzyl-3-(3-chloro-4-fluoro-phenyl)-N-cyclopropyl-N,4-dimethyl-5-(trifluoromethyl)-1H-pyrrole-2-carboxylic acid amide] | 75 to 95%
25 | Cc1c(-c2ccc(F)c(Cl)c2)c(C(=O)N2CC(O)C2)n(Cc2ccccc2)c1C(F)(F)F [SC-255, [1-Benzyl-3-(3-chloro-4-fluoro-phenyl)-4-methyl-5-(trifluoromethyl)-1H-pyrrol-2-yl]-(3-hydroxy-azetidin-1-yl)-methanone] | 40 to 75%
26 | Cc1c(-c2ccc(F)c(Cl)c2)c(C(=O)N(C)CC(C)(C)C)n(Cc2ccccc2)c1C(F)(F)F [SC-256, 1-Benzyl-3-(3-chloro-4-fluoro-phenyl)-N-(2,2-dimethyl-propyl)-N,4-dimethyl-5-(trifluoromethyl)-1H-pyrrole-2-carboxylic acid amide] | 30 to 40%
27 | Cc1c(-c2ccc(F)c(Cl)c2)c(C(=O)N(C)C(C)(C)CO)n(Cc2ccccc2)c1C(F)(F)F [SC-257, 1-Benzyl-3-(3-chloro-4-fluoro-phenyl)-N-(2-hydroxy-1,1-dimethyl-ethyl)-N,4-dimethyl-5-(trifluoromethyl)-1H-pyrrole-2-carboxylic acid amide] | 75 to 95%
28 | Cc1c(-c2ccc(F)c(Cl)c2)c(C(=O)N2CCOC(C)(C)C2)n(Cc2ccccc2)c1C(F)(F)F [SC-258, [1-Benzyl-3-(3-chloro-4-fluoro-phenyl)-4-methyl-5-(trifluoromethyl)-1H-pyrrol-2-yl]-(2,2-dimethyl-morpholin-4-yl)-methanone] | 75 to 95%
29 | CN(CC(C)(C)C)C(=O)c1c(-c2ccc(Cl)cc2)c(S(C)(=O)=O)c(C(F)(F)F)n1Cc1ccccc1 [SC-259, 1-Benzyl-3-(4-chlorophenyl)-N-(2,2-dimethyl-propyl)-N-methyl-4-methylsulfonyl-5-(trifluoromethyl)-1H-pyrrole-2-carboxylic acid amide] | 75 to 95%
